{"source": "patent US10176292B2", "about": "“STING crystals and modulators” (MEMORIAL SLOAN-KETTERING CANCER CENTER, priority 2013, dated 2019)", "key": {"hSTING^R232/V162": {"molecular_target": "hSTING^R232/V162 (Homo sapiens, UniProt Q86WV6, H232R/S162V)", "sequence (Q86WV6 140-379 S162V/H232R)": "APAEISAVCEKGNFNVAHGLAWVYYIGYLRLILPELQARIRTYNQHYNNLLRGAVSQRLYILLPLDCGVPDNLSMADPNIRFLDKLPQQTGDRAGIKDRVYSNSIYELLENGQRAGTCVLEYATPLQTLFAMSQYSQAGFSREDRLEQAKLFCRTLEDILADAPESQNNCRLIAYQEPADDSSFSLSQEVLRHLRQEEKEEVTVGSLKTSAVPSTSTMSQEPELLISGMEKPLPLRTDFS", "test": "ITC binding, hSTING^R232/V162", "conditions": "Protein: 0.08 mM; Ligands: 0.8 mM; 180 mM NaCl, pH 7.5; 25° C."}, "hSTING^R232/A162": {"molecular_target": "hSTING^R232/A162 (Homo sapiens, UniProt Q86WV6, H232R/S162A)", "sequence (Q86WV6 140-379 S162A/H232R)": "as the sequence (Q86WV6 140-379 S162V/H232R) above, with V23A counted along it", "test": "ITC binding, hSTING^R232/A162", "conditions": "Protein: 0.08 mM; Ligands: 0.8 mM; 30 mM HEPES, 180 mM NaCl, pH 7.5; 25° C."}, "hSTING S162V": {"molecular_target": "T1, hSTING S162V (Homo sapiens, UniProt Q86WV6, S162V)", "T1 construct": "Full-length hSTING (wt and substitutions) and mSTING (wt) constructs were used for this cellular assay; expressed in transfected cells; host or cells: HEK293T", "T1 sequence (Q86WV6 whole entry S162V)": "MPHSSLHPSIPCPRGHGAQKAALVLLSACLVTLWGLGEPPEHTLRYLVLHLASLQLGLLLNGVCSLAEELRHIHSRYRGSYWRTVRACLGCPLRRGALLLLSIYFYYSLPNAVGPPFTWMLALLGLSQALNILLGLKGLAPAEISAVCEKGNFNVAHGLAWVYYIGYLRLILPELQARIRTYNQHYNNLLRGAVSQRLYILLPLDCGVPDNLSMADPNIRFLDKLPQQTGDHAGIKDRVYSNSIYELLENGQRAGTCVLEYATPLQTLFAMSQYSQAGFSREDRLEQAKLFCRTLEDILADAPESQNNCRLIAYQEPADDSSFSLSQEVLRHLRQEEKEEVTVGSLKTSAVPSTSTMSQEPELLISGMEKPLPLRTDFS", "test": "IFN-β luciferase reporter, hSTING S162V", "format": "cell-based", "conditions": "75 μg/ml DMXAA (FIG. 14A)", "description": "Luciferase expression was determined after 12 h. […] Cells were lysed in Passive Lysis Buffer.\n(§1) Luciferase assays for DMXAA experiments were performed as described above. Briefly, 3×10^4 293T cells were reverse-transfected with STING constructs (5 ng per 96-well) and reporter constructs (50 ng pIFNβ-Gluc, 10 ng pLenti-EF1-Fluc for normalization, 35 ng pMAX-empty as stuffer, delivered with TransIT-LT1, MirusBio, Madison Wis.). […] 12 hours after stimulation with STING-ligands, cells were resuspended in passive lysis buffer and luciferase activity was determined using the respective substrates Coelenterazine and D-Luciferin (PJK, Kleinblittersdorf, Germany). Gaussia Luciferase values were then normalized to constitutive Firefly Luciferase values (resulting in Relative Light Units, RLU)."}, "hSTING^S162A/G230I/Q266I": {"molecular_target": "hSTING^S162A/G230I/Q266I (Homo sapiens, UniProt Q86WV6, G230I/H232R/Q266I/S162A)", "sequence (Q86WV6 whole entry S162A/G230I/H232R/Q266I)": "as the sequence (Q86WV6 whole entry S162V) above, with V162A, G230I, H232R, Q266I counted along it", "test": "Real-time PCR in STING^Gt/Gt BMDCs transduced with hSTING^S162A/G230I/Q266I", "format": "cell-based", "conditions": "50 μg/ml DMXAA, 3 hours", "description": "(§2) The protocol for generation of bone marrow-derived dendritic cells was described before (Dai et al., 2014). […] BMDCs (1×10^6 cells/well) were infected with retroviruses expressing hSTING (wt and various substitution mutants).\n(§3) hSTING cDNAs were cloned into pQCXIP-HA vector. In vitro packaging system was used to generate retroviruses according to protocol (Clontech). BMDCs (1×10^6 cells/well) were seeded into 6-well plates and infected with retroviruses. […] CXCL10 protein level was determined by ELISA."}, "hSTING I235L": {"molecular_target": "T2, hSTING I235L (Homo sapiens, UniProt Q86WV6, H232R/I235L)", "T2 construct": "Full-length hSTING (wt and substitutions) and mSTING (wt) constructs were used for this cellular assay; expressed in transfected cells; host or cells: 293T", "T2 sequence (Q86WV6 whole entry H232R/I235L)": "as the sequence (Q86WV6 whole entry S162V) above, with V162S, H232R, I235L counted along it", "test": "IFN-β luciferase reporter, hSTING I235L", "format": "cell-based", "conditions": "0.18 mM DMXAA, 12 hours", "description": "as §1"}, "hSTING^S162A": {"molecular_target": "T3, hSTING^S162A (Homo sapiens, UniProt Q86WV6, H232R/S162A)", "T3 construct": "expressed in transfected cells; host or cells: bone marrow-derived dendritic cells of STING^Gt/Gt mice, retroviral transduction (pQCXIP-HA)", "T3 sequence (Q86WV6 whole entry S162A/H232R)": "as the sequence (Q86WV6 whole entry S162V) above, with V162A, H232R counted along it", "test": "Real-time PCR in STING^Gt/Gt BMDCs transduced with hSTING^S162A", "format": "cell-based", "conditions": "50 μg/ml DMXAA, 3 hours", "description": "as §2, §3"}, "hSTING^H232/A162": {"molecular_target": "hSTING^H232/A162 (Homo sapiens, UniProt Q86WV6, S162A)", "sequence (Q86WV6 140-379 S162A)": "as the sequence (Q86WV6 140-379 S162V/H232R) above, with V23A, R93H counted along it", "test": "ITC binding, hSTING^H232 mutant S162A", "conditions": "DMXAA; Protein: 0.08 mM; Ligands: 0.8 mM; 180 mM NaCl, pH 7.5; 25° C."}, "hSTING^G230I [1]": {"molecular_target": "T4, hSTING^G230I (Homo sapiens, UniProt Q86WV6, G230I/H232R)", "T4 sequence (Q86WV6 whole entry G230I/H232R)": "as the sequence (Q86WV6 whole entry S162V) above, with V162S, G230I, H232R counted along it", "test": "IFN-β luciferase reporter, hSTING^G230I", "format": "cell-based", "design": "Full-length hSTING (wt and substitutions) and mSTING (wt) constructs were used for this cellular assay; expressed in transfected cells; host or cells: 293T", "conditions": "ascending concentrations of DMXAA, 12 hours", "description": "as §1"}, "wt hSTING": {"molecular_target": "T5, wt hSTING (Homo sapiens, UniProt Q86WV6, H232R)", "T5 construct": "expressed in transfected cells; host or cells: bone marrow-derived dendritic cells of STING^Gt/Gt mice, retroviral transduction (pQCXIP-HA)", "T5 sequence (Q86WV6 whole entry H232R)": "as the sequence (Q86WV6 whole entry S162V) above, with V162S, H232R counted along it", "test": "Real-time PCR in STING^Gt/Gt BMDCs transduced with wt hSTING", "format": "cell-based", "conditions": "50 μg/ml DMXAA, 3 hours", "description": "as §2, §3"}, "hSTING^G230I [2]": {"molecular_target": "T4, hSTING^G230I", "test": "Real-time PCR in STING^Gt/Gt BMDCs transduced with hSTING^G230I", "format": "cell-based", "conditions": "50 μg/ml DMXAA, 3 hours", "description": "as §2, §3"}, "hSTING^group4": {"system": "hSTING^group4", "test": "ITC binding, hSTING^group4", "conditions": "isolated group4 substitutions"}, "[3]": {"molecular_target": "T6, hSTING^S162A/Q266I (aa 155-341) (Homo sapiens, UniProt Q86WV6, H232R/Q266I/S162A)", "T6 construct": "His6-SUMO (N, cleaved yes); made in house; host or cells: E. coli BL21 (DE3) RIL, modified pRSFDuet-1 vector", "T6 sequence (Q86WV6 155-341 S162A/H232R/Q266I)": "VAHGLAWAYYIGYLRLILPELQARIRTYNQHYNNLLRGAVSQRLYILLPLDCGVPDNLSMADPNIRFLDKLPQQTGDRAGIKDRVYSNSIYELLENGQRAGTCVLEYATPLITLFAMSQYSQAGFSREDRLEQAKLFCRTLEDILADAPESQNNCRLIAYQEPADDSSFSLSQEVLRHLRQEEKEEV", "test": "X-ray crystal structure of DMXAA-hSTING^S162A/Q266I complex (Table 8 coordinates)", "conditions": "X-ray refinement (PHENIX) of DMXAA-hSTING^S162A/Q266I complex", "description": "The crystals were generated by sitting drop vapor diffusion method at 20° C., by mixing equal volume reservoir solution with the sample. The detailed conditions are listed below: DMXAA-hSTING^group2: 2 M LiCl, 10% PEG6000, 0.01 M CaCl2, 0.1 M Tris, pH 7.8; DMXAA-hSTING^G230I: 0.2 M Li2SO4, 20% PEG 3350, 0.015 mM CYMAL®-7, 0.1 M Tris, pH 8.1; DMXAA-hSTING^S162A/Q266I: 0.2 M Ca(Ac)2, 15% PEG3000, 0.01 M L-Proline, 0.1 M NaAc, pH 5.1; DMXAA-hSTING^S162A/G230I/Q266I: 0.2 M Ca(Ac)2, 15% PEG3000, 0.1 M LiCl, 0.1 M NaAc, pH 5.1. All structures were solved using PHASER, COOT, PHENIX, and REFMAC programs.\n(PDB: 4F5D) as the search model. […] For the cGAMP-STING binary structures, two STING molecules in the STING dimer have equal probability to bind with either G or A moiety of the cGAMP isomers. […] We therefore assigned two conformations with 0.5 occupancy for bound cGAMP isomers.\n(PDB: 4LOH) as the search model.\nThe model building was conducted using the program COOT (Emsley et al., 2010) and structural refinement was conducted using the program REFMAC (Murshudov et al., 1997)."}}}
{"smiles": "Cc1ccc2c(=O)c3cccc(CC(=O)O)c3oc2c1C", "note": "[DMXAA, 5,6-dimethylxanthenone-4-acetic acid]", "values": [{"measurement": "TΔS", "setting": "hSTING^R232/V162", "result": "+7.93 Kcal/mol"}, {"measurement": "ΔG", "setting": "hSTING^R232/V162", "result": -31.8, "unit": "kJ/mol"}, {"measurement": "ΔH", "setting": "hSTING^R232/V162", "result": "+0.32 Kcal/mol"}, {"measurement": "TΔS", "setting": "hSTING^R232/A162", "result": "+8.65 Kcal/mol"}, {"measurement": "ΔG", "setting": "hSTING^R232/A162", "result": -34.7, "unit": "kJ/mol"}, {"measurement": "ΔH", "setting": "hSTING^R232/A162", "result": "+0.36 Kcal/mol"}, {"measurement": "IFN induction by DMXAA", "setting": "hSTING S162V", "result": "not observed"}, {"measurement": "increases in IFN-β mRNA levels", "setting": "hSTING^S162A/G230I/Q266I", "result": 4.2, "unit": "fold"}, {"measurement": "up-regulation of CXCL10, CCL5 and IL-6 mRNAs", "setting": "hSTING^S162A/G230I/Q266I", "result": "strongest induction among the four mutants"}, {"measurement": "DMXAA-mediated IFN-β induction", "setting": "hSTING I235L", "result": "no effects"}, {"measurement": "increases in IFN-β mRNA levels", "setting": "hSTING^S162A", "result": 2.2, "unit": "fold"}, {"measurement": "TΔS", "setting": "hSTING^H232/A162", "result": "+7.99 Kcal/mol"}, {"measurement": "ΔH", "setting": "hSTING^H232/A162", "result": "+0.44 Kcal/mol"}, {"measurement": "IFN-β induction activity (luciferase), DMXAA", "setting": "hSTING^G230I [1]", "result": "almost identical IFN-β induction as hSTING^group2"}, {"measurement": "up-regulation of IFN-β mRNA after DMXAA treatment", "setting": "wt hSTING", "result": "did not induce the up-regulation"}, {"measurement": "increases in IFN-β mRNA levels", "setting": "hSTING^G230I [2]", "result": 2.6, "unit": "fold"}, {"measurement": "binding to DMXAA (ITC)", "setting": "hSTING^group4", "result": "no detectable binding"}, {"measurement": "FREE R VALUE", "setting": "[3]", "result": "REMARK 3 FREE R VALUE: 0.2288"}, {"measurement": "R VALUE (WORKING SET)", "setting": "[3]", "result": "REMARK 3 R VALUE (WORKING SET): 0.1826"}, {"measurement": "RESOLUTION RANGE HIGH (ANGSTROMS)", "setting": "[3]", "result": "REMARK 3 RESOLUTION RANGE HIGH (ANGSTROMS): 2.420"}]}
